# Measurements reported in patent US6900200B2, “Tricyclic hydroxy carboxamides and derivatives thereof tocolytic oxytocin receptor antagonists” (Wyeth, priority 2001, dated 2005).
# Molecular target: T1, human vasopressin V2 receptor subtype (Homo sapiens, UniProt P30518)
# T1 construct: host or cells: CHO cells, pZeoSV vector
# Assay: Vasopressin binding in CHO cell membranes expressing human vasopressin V2 subtype receptors ([3H]arginine vasopressin radioligand binding)
# Details: @ 100 nM
# Description: Vasopressin Binding in Chinese Hamster Ovary Cell Membranes Expressing Human Vasopressin V2 Subtype Receptors
# Chinese Hamster Ovary (CHO) cells stably transfected with the human V2 subtype receptors were obtained from M. Thibonnier, Case Western Reserve University School of Medicine, Cleveland, Ohio.
# A. Passaging and Amplification of Cells
# CHO cells transfected with the human vasopressin V2 subtype receptors obtained from M. Thibonnier (pZeoSV vector) are allowed to grow to confluency (approx. >90%) in T-150 flasks under sterile conditions, in a cell culture medium ofF-12 Nutrient Mixture (HAM) with L-glutamine (Gibco Cat. #11765-054) containing 15 mM HEPES (Gibco Cat. #15630-080), 1% antibiotic/antimycotic (add 5 mL 100×, Gibco Cat. #15240-062 per 500 mL F-12), 250 μg/mL Zeocin (add 1.25 mL of 100 mg/mL Invitrogen R-250-01 per 500 mL F-1 2) and 10% Fetal Bovine Serum (Qualified, heat inactivated, Gibco Cat. #16140-063). The medium is removed by aspiration and the cells washed with 10 mL of Hank's Balanced Salt solution (Gibco Cat. #14175-095). The salt solution is removed by aspiration and the cells trypsinized with 5 mL of trypsin-EDTA (0.05% trypsin, 0.53 mM EDTA-4Na, Gibco Cat. #25300-070) for 1 min. The trypsin is removed by aspiration and the cells dislodged by tapping. Cell Culture medium (e.g. 30 mL for 1:30 split) is immediately added and mixed well to inactivate trypsin. 1 mL of detached cells is added to new culture flasks containing fresh Cell Culture medium (e.g. into 25 mL per T-150 flask), and mixed gently. The cells are incubated at 37° C. in 5% CO2. The medium is changed at 3 to 4 day interval (or as appropriate). The cells grow to confluency (approx. >75%-95%) within 7-8 days. All steps are done under sterile conditions.
# The cells are washed twice gently with Hank's Balanced Salt solution (e.g. use 10 mL per T-150 flask). The excess solution is removed and the cells bathed for 15-30 min. in an enzyme-free Cell Dissociation Buffer (e.g. use 8 mL Hank's Based, Gibco Cat. # 13150-016 per T-150 flask) until cells are loosened. The contents are transferred to centrifuge tubes (50 mL) kept in ice bath. All subsequent steps are done at 4° C. The tubes are centrifuged at 300×g for 15 min (1380 rpm on SORVAL, Model RT6000D, using the rotor for 50 mL tubes). The supernatant is discarded and the cells suspended in homogenizing buffer (10 mM Tris-HCl containing 0.25 M sucrose and 1 mM EDTA, pH 7.4) ensuring that the volume of the buffer is about ten times the volume of the cell pellet. The cells are pooled into a centrifuge tube (50 mL) and homogenized with Polytron at setting 6 for 10 sec. The homogenate is transferred into a Potter-Elvjehm homogenizer and homogenized with 3 strokes. The homogenate is centrifuged at 1500×g for 60 min at 4° C. (3100 rpm using SORVAL, model RT6000D, using the rotor for 50 mL tubes). The pellet is discarded. The supernatant is centrifuged at 100,000×g for 60 min. at 4° C. (Beckman L8-80M ultracentrifuge; spin at 37,500 rpm with rotor type 70 Ti for 50 mL tubes; 38,000 rpm with type 80Ti for 15 mL tubes; or 35,800 rpm with rotor type 45Ti). The supernantant is discarded and the pellet suspended in 3 to 4 mL of Tris buffer (50 mM TRIS—HCl, pH 7.4). The protein content is estimated by the Bradford or Lowry method. The volume of the membrane suspension is adjusted with the membrane buffer (50 mM Tris-HCl containing 0.1% BSA and 0.1 mM PMSF) to give 3.0 mg/mL (or as appropriate) of protein. The membranes are aliquoted and stored at −70. ° C.
# C. Radioligand Binding Assay
# In wells of a 96-well format microtiter plate, is added 90, 110 or 130 μL (to make up a final volume of 200 μL) of assay buffer containing 50 mM of Tris-HCl (pH 7.4), […], 1 mg % aprotinin, 1 mg % leupeptin, 2 mg % 1,10-phenanthroline, 10 mg % trypsin inhibitor, and 0.1 mM PMSF. The inhibitors are added on the day of the experiment. […]
row,Compound,inhibition at 0.1 µM
1,"COc1cc(C(=O)N2Cc3ccc(C(=O)N4CCN(CCO)CC4)n3Cc3ccccc32)ccc1-n1c(C)ccc1C [Example 52, {10-[4-(2,5-Dimethyl-1H-pyrrol-1-yl)-3-methoxybenzoyl]-10,11-dihydro-5H-pyrrolo[2,1-c][1,4]benzodiazepin-3-yl}[4-(2-hydroxyethyl)-1-piperazinyl]methanone]",3%
2,"COc1cc2c(cc1OC)N(C(=O)c1ccc(-c3ccccc3OC)c(C)c1)Cc1ccc(C(=O)N(C)C[C@H](O)[C@@H](O)[C@H](O)[C@H](O)CO)n1C2 [Example 37, 7,8-Dimethoxy-10-[(2′-methoxy-2-methyl-[1,1′-biphenyl]-4-yl)carbonyl]-10,11-dihydro-5H-pyrrolo[2,1-c][1,4]benzodiazepine-3-carboxylic acid methyl-[(2S, 3R, 4R, 5R)-2,3,4,5,6-pentahydroxy-hexyl)-amide]",7%
3,"COCCN1CCN(C(=O)c2ccc3n2Cc2ccccc2N(C(=O)c2ccc(-c4ccccc4C(F)(F)F)c(C)c2)C3)CC1 [Example 7, Methyl 2-{4-[(10-{[2-methyl-2′-trifluoromethyl-[1,1′-biphenyl]-4-yl]carbonyl}-10,11-dihydro-5H-pyrrolo[2,1-c][1,4]benzodiazepin-3-yl)carbonyl]piperazin-1-yl}ethyl ether]",16%
4,"COc1ccccc1-c1ccc(C(=O)N2Cc3ccc(C(=O)N4CCN(CCO)CC4)n3Cc3ccccc32)cc1 [Example 47, [4-(2-Hydroxyethyl)-1-piperazinyl]{10-[(2′-methoxy[1,1′-biphenyl]-4-yl)carbonyl]-10,11-dihydro-5H-pyrrolo[2,1-c][1,4]benzodiazepin-3-yl}methanone]",16%

# Continued, values first:
row,inhibition at 0.1 µM,Compound
1,51%,"COc1ccccc1-c1ccc(C(=O)N2Cc3ccc(C(=O)N(C)C[C@@H](O)CO)n3Cc3ccccc32)cc1C (single isomer, unassigned) [Example 16]"
2,16%,"COc1cccc(-c2ccc(C(=O)N3Cc4ccc(C(=O)N5CCN(CCO)CC5)n4Cc4ccccc43)cc2OC)c1 [Example 50, {10-[(2,3′-Dimethoxy[1,1′-biphenyl]-4-yl)carbonyl]-10,11-dihydro-5H-pyrrolo[2,1-c][1,4]benzodiazepin-3-yl}[4-(2-hydroxyethyl)-1-piperazinyl]methanone]"
3,13%,"COc1cccc(-c2ccc(C(=O)N3Cc4ccc(C(=O)N5CCN(CCO)CC5)n4Cc4ccccc43)cc2C)c1 [Example 44, [4-(2-Hydroxyethyl)-1-piperazinyl]{10-[(3′-methoxy-2-methyl[1,1′-biphenyl]-4yl)carbonyl]-10,11-dihydro-5H-pyrrolo[2,1-c][1,4]benzodiazepin-3-yl}methanone]"
4,11%,"Cc1cc(C(=O)N2Cc3ccc(C(=O)N4CCN(CCO)CC4)n3Cc3ccccc32)ccc1-c1ccccc1C(F)(F)F [Example 48, [4-(2-Hydroxyethyl)-1-piperazinyl](10-{[2-methyl-2′-(trifluoromethyl)[1,1′-biphenyl]-4-yl)carbonyl}-10,11-dihydro-5H-pyrrolo[2,1-c][1,4]benzodiazepin-3-yl)methanone]"
5,74%,"COc1ccccc1-c1ccc(C(=O)N2Cc3ccc(C(=O)N(C)C[C@H](O)CO)n3Cc3ccccc32)cc1C (single isomer, unassigned) [Example 15]"
6,21%,"O=C(c1ccc2n1Cc1ccccc1N(C(=O)c1ccc(-c3cccc4ccccc34)cc1Cl)C2)N1CCN(CCO)CC1 [Example 25, 2-{4-[10-{[2-Chloro-4-(naphthalen-1-yl)phenyl]carbonyl}-(10,11-dihydro-5H-pyrrolo[2,1-c][1,4]benzodiazepin-3-yl)carbonyl]piperazine-1-yl}-1-hydroxyethane]"

# Same assay, conditions: value printed in parentheses
row,Compound,IC50
1,"COC[C@@H](O)CN1CCN(C(=O)c2ccc3n2Cc2ccccc2N(C(=O)c2ccc(-c4ccccc4C(F)(F)F)c(C)c2)C3)CC1 [Example 9, [3-({4-[(2S)-2-Hydroxy-3-methoxypropyl]-1-piperazinyl}carbonyl)-5H-pyrrolo[2,1-c][1,4]benzodiazepin-10(11H)-yl][2-methyl-2′-trifluoromethyl-[1,1′-biphenyl]-4-yl]methanone]",1230 nM
2,"COCC(CN(C)C(=O)c1ccc2n1Cc1ccccc1N(C(=O)c1ccc(-c3ccccc3C(F)(F)F)c(C)c1)C2)OC (stereo not drawn) [Example 10, N-(2,3-Dimethoxypropyl)-N-methyl-10-{[2-methyl-2′-trifluoromethyl-[1,1′-biphenyl]-4-yl]carbonyl}-10,11-dihydro-5H-pyrrolo[2,1-c][1,4]benzodiazepine-3-carboxamide]",2220 nM
3,"Cc1cc(C(=O)N2Cc3ccc(C(=O)N4CCN(C[C@H](O)CO)CC4)n3Cc3ccccc32)ccc1-c1ccccc1C(F)(F)F [Example 5, (2S)-3-{4-[(10-{[2-Methyl-2′-trifluoromethyl-[1,1′-biphenyl]-4-yl]carbonyl}-10,11-dihydro-5H-pyrrolo[2,1-c][1,4]benzodiazepin-3-yl)carbonyl]piperazin-1-yl}propane-1,2-diol]",1190 nM
4,"{(2S)-1-[(10-{[2-Methoxy-2(trifluoromethyl)[1,1′-biphenyl]-4-yl]carbonyl}-10,11-dihydro-5H-pyrrolo[2,1-c][1,4]benzodiazepin-3-yl)carbonyl]pyrrolidin-2-yl}-methanol [Example 36]",2070 nM
5,"COc1cc(C(=O)N2Cc3ccc(C(=O)N(C)CC(O)CN(C)C)n3Cc3ccccc32)ccc1-c1ccccc1C(F)(F)F (stereo not drawn) [Example 22, N-[(3-Dimethylamino)-2-hydroxy-propyl]-10-{[2-methoxy-2′-trifluoromethyl-[1,1′-biphenyl]-4-yl]carbonyl}-N-methyl-10,11-dihydro-5H-pyrrolo[2,1-c][1,4]benzodiazepine-3-carboxamide]",1140 nM

# More lines, now with the values ahead:
row,IC50,Compound
1,617 nM,"Cc1cc(C(=O)N2Cc3ccc(C(=O)N(C)C[C@H](O)[C@@H](O)[C@H](O)[C@H](O)CO)n3Cc3ccccc32)ccc1-c1ccccc1C(F)(F)F [Example 4, 10-[(2-Methyl-2′-trifluoromethyl-[1,1′-biphenyl]-4-yl)carbonyl]-10,11-dihydro-5H-pyrrolo[2,1-c][1,4]benzodiazepine-3-carboxylic acid methyl-((2S,3R,4R,5R)-2,3,4,5,6-pentahydroxy-hexyl)-amide]"
2,451 nM,"COc1cc(C(=O)N2Cc3ccc(C(=O)N(C)C[C@@H](O)[C@H](O)[C@H](O)[C@@H](O)CO)n3Cc3ccccc32)ccc1-c1ccccc1C(F)(F)F (stereo in doubt) [Example 23, 10-{[2-Methoxy-2′-trifluoromethyl-[1,1′-biphenyl]-4-yl]carbonyl}-N-methyl-N-[(2R,3S,4R,5S)-2,3,4,5,6-pentahydroxyhexyl]-10,11-dihydro-5H-pyrrolo[2,1-c][1,4]benzodiazepine-3-carboxamide]"
3,1390 nM,"Cc1cc(C(=O)N2Cc3ccc(C(=O)N4CCN(C[C@@H](O)CO)CC4)n3Cc3ccccc32)ccc1-c1ccccc1C(F)(F)F [Example 6, (2R)-3-{4-[(10-{[2-Methyl-2′-trifluoromethyl-[1,1′-biphenyl]-4-yl]carbonyl}-10,11-dihydro-5H-pyrrolo[2,1-c][1,4]benzodiazepin-3-yl)carbonyl]piperazin-1-yl}propane-1,2-diol]"
